According to the supplement of paper PMC10307832:

Tests used:
Assay in all cases: relative viability (nuclei count vs DMSO), 5 days (fraction); higher = more cells survive
HCC-366 = test system: HCC-366
Outline: (§1)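 Medians of duplicate plates are given as relative viability. That measure is the nuclei count in treated wells divided by the count in vehicle wells. Counts were taken on 4× images of lung cancer cell lines in 1536-well plates, 5 days after pin-tool dosing the day after seeding with one drug alone or a fixed anchor-drug dose plus five library-drug doses (not always all listed) in √10 steps.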

NCI-H2405 = test system: NCI-H2405
Outline: as §1

BEN = test system: BEN
Outline: as §1

NCI-H1734 = test system: NCI-H1734
Outline: as §1

NCI-H2087 = test system: NCI-H2087
Outline: as §1

NCI-H2009 = test system: NCI-H2009
Outline: as §1

SK-LU-1 = test system: SK-LU-1
Outline: as §1

HARA = test system: HARA
Outline: as §1

NCI-H1437 = test system: NCI-H1437
Outline: as §1

NCI-H522 = test system: NCI-H522
Outline: as §1

SK-MES-1 = test system: SK-MES-1
Outline: as §1

NCI-H1993 = test system: NCI-H1993
Outline: as §1

NCI-H1355 = test system: NCI-H1355
Outline: as §1

NCI-H2170 = test system: NCI-H2170
Outline: as §1

EKVX = test system: EKVX
Outline: as §1

NCI-H2342 = test system: NCI-H2342
Outline: as §1

NCI-H1395 = test system: NCI-H1395
Outline: as §1

LOU-NH91 = test system: LOU-NH91
Outline: as §1

HCC-827 = test system: HCC-827
Outline: as §1

NCI-H647 = test system: NCI-H647
Outline: as §1

NCI-H661 = test system: NCI-H661
Outline: as §1

How did the relative viability (HCC-366; first compound 0.005 µM) turn out when `Nc1ccn([C@@H]2O[C@H](CO)[C@@H](O)[C@@H]2O)c(=O)n1` [Cytarabine] + Cc1cc(Nc2cc(N3CCN(C)CC3)nc(Sc3ccc(NC(=O)C4CC4)cc3)n2)n[nH]1 [Tozasertib] (partner 0.1 µM) was run?
Its relative viability is 0.149.

What about the relative viability (HCC-366; first compound 0.01581 µM) of the same compound?
The relative viability was 0.119.

What about the relative viability (HCC-366; first compound 0.05 µM) of the same compound?
Its relative viability is 0.0834.

What about the relative viability (HCC-366; first compound 0.1581 µM) of the same compound?
The relative viability was 0.0612.

And the relative viability (HCC-366; first compound 0.5 µM)?
Its relative viability is 0.0652.

What about the relative viability (NCI-H2405; first compound 0.005 µM) of the same compound?
Its relative viability is 0.66.

And the relative viability (NCI-H2405; first compound 0.01581 µM)?
The relative viability was 0.712.

And the relative viability (NCI-H2405; first compound 0.05 µM)?
The relative viability was 0.56.

What about the relative viability (NCI-H2405; first compound 0.1581 µM) of the same compound?
Its relative viability is 0.429.

What about the relative viability (NCI-H2405; first compound 0.5 µM) of the same compound?
Its relative viability is 0.371.

And the relative viability (BEN; first compound 0.005 µM)?
The relative viability was 0.427.

And the relative viability (BEN; first compound 0.01581 µM)?
The relative viability was 0.519.

And the relative viability (BEN; first compound 0.05 µM)?
Its relative viability is 0.569.

What about the relative viability (BEN; first compound 0.1581 µM) of the same compound?
Its relative viability is 0.63.

And the relative viability (BEN; first compound 0.5 µM)?
Its relative viability is 0.563.

What about the relative viability (NCI-H1734; first compound 0.005 µM) of the same compound?
The relative viability was 0.245.

And the relative viability (NCI-H1734; first compound 0.01581 µM)?
The relative viability was 0.232.

And the relative viability (NCI-H1734; first compound 0.05 µM)?
Its relative viability is 0.178.

And the relative viability (NCI-H1734; first compound 0.1581 µM)?
The relative viability was 0.117.

And the relative viability (NCI-H1734; first compound 0.5 µM)?
The relative viability was 0.112.

What about the relative viability (NCI-H2087; first compound 0.005 µM) of the same compound?
Its relative viability is 0.254.

And the relative viability (NCI-H2087; first compound 0.01581 µM)?
The relative viability was 0.25.

What about the relative viability (NCI-H2087; first compound 0.05 µM) of the same compound?
Its relative viability is 0.234.

And the relative viability (NCI-H2087; first compound 0.1581 µM)?
Its relative viability is 0.195.

What about the relative viability (NCI-H2087; first compound 0.5 µM) of the same compound?
Its relative viability is 0.174.

And the relative viability (NCI-H2009; first compound 0.005 µM)?
Its relative viability is 0.685.

And the relative viability (NCI-H2009; first compound 0.01581 µM)?
Its relative viability is 0.795.

And the relative viability (NCI-H2009; first compound 0.05 µM)?
The relative viability was 0.786.

What about the relative viability (NCI-H2009; first compound 0.1581 µM) of the same compound?
Its relative viability is 0.566.

And the relative viability (NCI-H2009; first compound 0.5 µM)?
The relative viability was 0.308.

And the relative viability (SK-LU-1; first compound 0.005 µM)?
The relative viability was 0.301.

What about the relative viability (SK-LU-1; first compound 0.01581 µM) of the same compound?
Its relative viability is 0.325.

And the relative viability (SK-LU-1; first compound 0.05 µM)?
Its relative viability is 0.279.

And the relative viability (SK-LU-1; first compound 0.1581 µM)?
The relative viability was 0.185.

What about the relative viability (SK-LU-1; first compound 0.5 µM) of the same compound?
The relative viability was 0.189.

And the relative viability (HARA; first compound 0.005 µM)?
The relative viability was 0.102.

What about the relative viability (HARA; first compound 0.01581 µM) of the same compound?
The relative viability was 0.102.

And the relative viability (HARA; first compound 0.05 µM)?
Its relative viability is 0.0829.

And the relative viability (HARA; first compound 0.1581 µM)?
The relative viability was 0.0658.

What about the relative viability (HARA; first compound 0.5 µM) of the same compound?
Its relative viability is 0.0703.

What about the relative viability (NCI-H1437; first compound 0.005 µM) of the same compound?
Its relative viability is 0.295.

And the relative viability (NCI-H1437; first compound 0.01581 µM)?
The relative viability was 0.355.

And the relative viability (NCI-H1437; first compound 0.05 µM)?
Its relative viability is 0.365.

What about the relative viability (NCI-H1437; first compound 0.1581 µM) of the same compound?
The relative viability was 0.251.

What about the relative viability (NCI-H1437; first compound 0.5 µM) of the same compound?
The relative viability was 0.175.

And the relative viability (NCI-H522; first compound 0.005 µM)?
The relative viability was 0.556.

What about the relative viability (NCI-H522; first compound 0.01581 µM) of the same compound?
The relative viability was 0.5.

And the relative viability (NCI-H522; first compound 0.05 µM)?
Its relative viability is 0.476.

And the relative viability (NCI-H522; first compound 0.1581 µM)?
The relative viability was 0.482.

And the relative viability (NCI-H522; first compound 0.5 µM)?
The relative viability was 0.572.

What about the relative viability (SK-MES-1; first compound 0.005 µM) of the same compound?
The relative viability was 0.583.

And the relative viability (SK-MES-1; first compound 0.01581 µM)?
Its relative viability is 0.483.

And the relative viability (SK-MES-1; first compound 0.05 µM)?
Its relative viability is 0.28.

What about the relative viability (SK-MES-1; first compound 0.1581 µM) of the same compound?
Its relative viability is 0.179.

And the relative viability (SK-MES-1; first compound 0.5 µM)?
Its relative viability is 0.159.

And the relative viability (NCI-H1993; first compound 0.005 µM)?
The relative viability was 0.631.

And the relative viability (NCI-H1993; first compound 0.01581 µM)?
The relative viability was 0.633.

What about the relative viability (NCI-H1993; first compound 0.05 µM) of the same compound?
Its relative viability is 0.681.

What about the relative viability (NCI-H1993; first compound 0.1581 µM) of the same compound?
The relative viability was 0.534.

And the relative viability (NCI-H1993; first compound 0.5 µM)?
Its relative viability is 0.564.

What about the relative viability (NCI-H1355; first compound 0.005 µM) of the same compound?
Its relative viability is 0.52.

And the relative viability (NCI-H1355; first compound 0.01581 µM)?
Its relative viability is 0.524.

And the relative viability (NCI-H1355; first compound 0.05 µM)?
The relative viability was 0.484.

What about the relative viability (NCI-H1355; first compound 0.1581 µM) of the same compound?
The relative viability was 0.269.

And the relative viability (NCI-H1355; first compound 0.5 µM)?
Its relative viability is 0.314.

And the relative viability (NCI-H2170; first compound 0.005 µM)?
Its relative viability is 0.605.

And the relative viability (NCI-H2170; first compound 0.01581 µM)?
The relative viability was 0.5.

And the relative viability (NCI-H2170; first compound 0.05 µM)?
Its relative viability is 0.409.

And the relative viability (NCI-H2170; first compound 0.1581 µM)?
Its relative viability is 0.386.

What about the relative viability (NCI-H2170; first compound 0.5 µM) of the same compound?
Its relative viability is 0.26.

What about the relative viability (EKVX; first compound 0.005 µM) of the same compound?
The relative viability was 0.326.

And the relative viability (EKVX; first compound 0.01581 µM)?
Its relative viability is 0.35.

And the relative viability (EKVX; first compound 0.05 µM)?
Its relative viability is 0.333.

What about the relative viability (EKVX; first compound 0.1581 µM) of the same compound?
The relative viability was 0.272.

And the relative viability (EKVX; first compound 0.5 µM)?
Its relative viability is 0.19.

And the relative viability (NCI-H2342; first compound 0.005 µM)?
Its relative viability is 0.507.

What about the relative viability (NCI-H2342; first compound 0.01581 µM) of the same compound?
The relative viability was 0.616.

And the relative viability (NCI-H2342; first compound 0.05 µM)?
The relative viability was 0.496.

And the relative viability (NCI-H2342; first compound 0.1581 µM)?
Its relative viability is 0.506.

And the relative viability (NCI-H2342; first compound 0.5 µM)?
Its relative viability is 0.459.

What about the relative viability (NCI-H1395; first compound 0.005 µM) of the same compound?
The relative viability was 0.703.

And the relative viability (NCI-H1395; first compound 0.01581 µM)?
The relative viability was 0.633.

And the relative viability (NCI-H1395; first compound 0.05 µM)?
The relative viability was 0.434.

And the relative viability (NCI-H1395; first compound 0.1581 µM)?
The relative viability was 0.447.

And the relative viability (NCI-H1395; first compound 0.5 µM)?
Its relative viability is 0.388.

What about the relative viability (LOU-NH91; first compound 0.005 µM) of the same compound?
Its relative viability is 0.555.

What about the relative viability (LOU-NH91; first compound 0.01581 µM) of the same compound?
The relative viability was 0.53.

And the relative viability (LOU-NH91; first compound 0.05 µM)?
The relative viability was 0.672.

What about the relative viability (LOU-NH91; first compound 0.1581 µM) of the same compound?
Its relative viability is 0.411.

What about the relative viability (LOU-NH91; first compound 0.5 µM) of the same compound?
Its relative viability is 0.514.

And the relative viability (HCC-827; first compound 0.005 µM)?
The relative viability was 0.32.

What about the relative viability (HCC-827; first compound 0.01581 µM) of the same compound?
Its relative viability is 0.282.

And the relative viability (HCC-827; first compound 0.05 µM)?
Its relative viability is 0.286.

What about the relative viability (HCC-827; first compound 0.1581 µM) of the same compound?
Its relative viability is 0.187.

What about the relative viability (HCC-827; first compound 0.5 µM) of the same compound?
Its relative viability is 0.172.

What about the relative viability (NCI-H647; first compound 0.005 µM) of the same compound?
Its relative viability is 0.205.

What about the relative viability (NCI-H647; first compound 0.01581 µM) of the same compound?
Its relative viability is 0.22.

And the relative viability (NCI-H647; first compound 0.05 µM)?
Its relative viability is 0.0474.

What about the relative viability (NCI-H647; first compound 0.1581 µM) of the same compound?
Its relative viability is 0.073.

What about the relative viability (NCI-H647; first compound 0.5 µM) of the same compound?
The relative viability was 0.0484.

What about the relative viability (NCI-H661; first compound 0.005 µM) of the same compound?
Its relative viability is 0.371.

What about the relative viability (NCI-H661; first compound 0.01581 µM) of the same compound?
The relative viability was 0.368.

What about the relative viability (NCI-H661; first compound 0.05 µM) of the same compound?
The relative viability was 0.351.

What about the relative viability (NCI-H661; first compound 0.1581 µM) of the same compound?
The relative viability was 0.349.

What about the relative viability (NCI-H661; first compound 0.5 µM) of the same compound?
The relative viability was 0.364.
